Assays:
[1] = Fipronil-Worldwide technical Bulletin, BASF; cited from earlier work
[2] = system: J553x(HIIIAxA188) null and transgenic corn; assay: Fipronil/Pyraclostrobin study, initial trial: seed treatment, greenhouse growth, LemnaTec Scanalyzer imaging and harvest; type: in vivo, maize (Zea Mays L.); conditions: for Internode 1 length / Internode 2 length / Internode 3 length: seed treatment; for Fresh Weight: hand-collected
Experimental: (§1) J553x(HIIIAxA188) null and transgenic corn seeds of the T2 generation were treated with deionized water (Blank), 200 grams fipronil, 10 grams pyraclostrobin (F500), and 200 grams fipronil+10 grams pyraclostrobin; all formulation rates were grams/100 kg seed. Every formulation was applied to approximately 80 seeds. The formulation was pipetted into a 125 ml flask along the sides and bottom of the flask before adding the seeds and shaking the flask for 30 seconds. The coated seeds were then removed from the flask and placed in a plastic dish for drying.
(§2) Seventy-five 3-L pots per treatment (Blank, fipronil, pyraclostrobin, and fipronil+pyraclostrobin) were filled with potting media, labeled with colored stakes, and given a unique barcode. One seed per pot was planted at a depth of approximately 2 cm and covered with media. The media was lightly watered to imbibe the seeds, while allowing for ample oxygen exchange and so that the chemical coatings on the seeds remained intact. After planting, the pots were randomly distributed into three replicate blocks (1 bench=1 block), each with 25 plants of every treatment.
(§3) The plants were maintained in a greenhouse under optimal, well-watered conditions (80-90% field capacity) upon emergence. Supplemental nutrients were administered every third day during watering. The greenhouse temperature was maintained at 30° C., relative humidity at 75%, and light at 350 μmol m^−2s^−1, in a 15-hour day/9-hour night photoperiod. Supplemental lighting was provided using metal-halide lights. Once per week, the pots were randomly mixed within each block.
(§4) On day 21, the plants were imaged to collect the phenotypic data as described in the Imaging Procedures section. Leaves were sampled for transgene copy number on day 25 to identify the null and transgenic plants. On day 28, the plants were imaged and then harvested to collect fresh weight. The presence of the transgene was determined by the Taqman molecular analysis technique. Differences in the phenotypic data collected during the imaging process and in fresh weight among the four treatments and between the null and transgenic plants were assessed. The chemical by transgenic interactions were determined.
(§5) Imaging of the plants was facilitated using a LemnaTec Scanalyzer (Würselen, Germany), which includes a conveyor belt, an imaging station, a watering station, and computers for collecting, processing, and storing the image data. The cameras have a resolution of 1280×960 pixels and operate in 24-bit color.
(§6) The plants were manually transferred by block onto the conveyor system of the scanalyzer. Each plant was then moved through the imager automatically. At the imaging station, cameras collected the top view image and two side view images. The side view images were the transverse view and the view parallel with the plane of the plant.
(§7) As described in the formula (see Appendix A), the scanalyzer calculates plant volume as a number of pixels. To assign a physiologically meaningful value to the volume measurements, a separate experiment was conducted. The plants were scanned with the scanalyzer then harvested. The plant material was placed into a graduated cylinder filled to a known volume with water. The difference between the water plus plant material and water alone provided a known plant volume in mL.
(§8) Using the LemnaTec scanalyzer, we collected stem width; stalk volume; top, transverse, and parallel view plant areas; top, transverse, and parallel view green and yellow pixel counts; stem length; leaf angles and internode lengths through leaf 5; plant width and height; total leaf length; and total plant length.
(§9) Fresh Weight—A measurement of the fresh weight of the plant in grams. Hand-collected fresh weight is measured by harvesting the plant and weighing it on a balance. LemnaTec fresh weight is calculated by the scanalyzer based on plant volume and plant age. The zoom angles of the camera lenses are normalized using a calibration table. […]

[3] = system: J553x(HIIIAxA188) null and transgenic corn; assay: Fipronil/Pyraclostrobin study, second trial: seed treatment, greenhouse growth, LemnaTec Scanalyzer imaging; type: in vivo, maize (Zea Mays L.)
Experimental: as §1, §2, §3, §4, §5, §6, §7, §8, §9

[4] = initial trial, relative to all other treatments

Structure (SMILES): N#Cc1nn(-c2c(Cl)cc(C(F)(F)F)cc2Cl)c(N)c1[S+]([O-])C(F)(F)F (stereo not drawn) [Fipronil, 5-amino-1-(2,6-dichloro-α,α,α-trifluoro-p-tolyl)-4-trifluoromethylsulfinylpyrazole-3-carbonitrile]
- reported plant performance effects [1]: enhance overall root system and root hair development, increase tiller number and productivity, increase photosynthetic capacity (plant greenness), increase leaf area and plant height, stimulate early flowering and grain maturation leading to significant increases in yield
- # Fully Expanded Leaves ([2]; Avg): 3.0
- Leaf Angle 0 ([2]; Avg): 63.2 degrees
- Leaf Angle 1 ([2]; Avg): 58.9 degrees
- Plant Volume ([2]; Avg): 6.70E+06 pixels
- Stem Length ([2]; Avg): 108.8 cm
- stalk area from the transverse view, Pixel Count ([2]; Avg): 4910 pixels
- Internode 1 length ([2]; Avg of null and transgenic): 35.9 cm
- Internode 2 length ([2]; Avg of null and transgenic): 44.2 cm
- Internode 3 length ([2]; Avg of null and transgenic): 40.0 cm
- # Fully Expanded Leaves ([2]; Null plants): 3.1
- Leaf Angle 0 ([2]; Null plants): 57.5 degrees
- Leaf Angle 1 ([2]; Null plants): 63.6 degrees
- Plant Volume ([2]; Null plants): 6.53E+06 pixels
- Stem Length ([2]; Null plants): 110.4 cm
- stalk area from the transverse view, Pixel Count ([2]; Null plants): 5081 pixels
- Internode 1 length ([2]; Null plants): 35.3 cm
- Internode 2 length ([2]; Null plants): 45.9 cm
- Internode 3 length ([2]; Null plants): 42.4 cm
- Internode 1 length ([2]; Trans (transgenic) plants): 36.6 cm
- Internode 2 length ([2]; Trans (transgenic) plants): 42.5 cm
- Internode 3 length ([2]; Trans (transgenic) plants): 37.7 cm
- # Fully Expanded Leaves ([2]; Trans plants): 3.0
- Leaf Angle 0 ([2]; Trans plants): 68.7 degrees
- Leaf Angle 1 ([2]; Trans plants): 54.4 degrees
- Plant Volume ([2]; Trans plants): 6.86E+06 pixels
- Stem Length ([2]; Trans plants): 107.1 cm
- stalk area from the transverse view, Pixel Count ([2]; Trans plants): 4744 pixels
- Fresh Weight ([2]; Avg): 162.8 grams
- Fresh Weight ([2]; Null plants): 160.9 grams
- Fresh Weight ([2]; Trans plants): 164.7 grams
- fresh mass (in words) ([2]; initial trial, in general): enhanced
- plant height (in words) ([2]; initial trial, in general): enhanced
- plant volume (in words) ([2]; initial trial, in general): enhanced
- plant width (in words) ([2]; initial trial, in general): enhanced
- greenness (in words) [2, 4]: enhanced
- internode length (in words) [2, 4]: enhanced
- leaf angle (in words) [2, 4]: enhanced
- plant area (in words) [2, 4]: enhanced
- Dark Green Count ([2]; parallel view, Avg): 16389.5 pixels
- Medium Green Count ([2]; parallel view, Avg): 5662.4 pixels
- Plant Area ([2]; parallel view, Avg): 23760.8 pixels
- Yellow Count ([2]; parallel view, Avg): 1708.9 pixels
- Dark Green Count ([2]; parallel view, Null plants): 15955.0 pixels
- Medium Green Count ([2]; parallel view, Null plants): 5470.9 pixels
- Plant Area ([2]; parallel view, Null plants): 23035.0 pixels
- Yellow Count ([2]; parallel view, Null plants): 1609.1 pixels
- Dark Green Count ([2]; parallel view, Trans plants): 16812.3 pixels
- Medium Green Count ([2]; parallel view, Trans plants): 5848.7 pixels
- Plant Area ([2]; parallel view, Trans plants): 24467.0 pixels
- Yellow Count ([2]; parallel view, Trans plants): 1806.0 pixels
- Medium Green Count ([2]; top view, Avg): 17465 pixels
- Medium Green Count ([2]; top view, Null plants): 17038 pixels
- Medium Green Count ([2]; top view, Trans plants): 17881 pixels
- Medium Green Count ([2]; transverse view, Avg): 9089.0 pixels
- Yellow Count ([2]; transverse view, Avg): 3363.6 pixels
- Medium Green Count ([2]; transverse view, Null plants): 9132.8 pixels
- Yellow Count ([2]; transverse view, Null plants): 3268.7 pixels
- Medium Green Count ([2]; transverse view, Trans plants): 9046.4 pixels
- Yellow Count ([2]; transverse view, Trans plants): 3455.9 pixels
- Broad Side Drk Grn ([3]; Avg): 25067.65 pixels
- Broad Side Plnt Area ([3]; Avg): 35413.12 pixels
- Calc Fresh Weight ([3]; Avg): 100.77 g
- Narrow Side Drk Grn ([3]; Avg): 25969.34 pix
- Plant Volume ([3]; Avg): 9.19 M pixels
- Top Drk Grn ([3]; Avg): 57132.20 pixels
- Broad Side Drk Grn ([3]; Null plants): 26176.97 pixels
- Broad Side Plnt Area ([3]; Null plants): 36398.18 pixels
- Calc Fresh Weight ([3]; Null plants): 99.88 g
- Narrow Side Drk Grn ([3]; Null plants): 24703.55 pix
- Plant Volume ([3]; Null plants): 8.89 M pixels
- Top Drk Grn ([3]; Null plants): 56608.71 pixels
- Broad Side Drk Grn ([3]; Trans plants): 23958.33 pixels
- Broad Side Plnt Area ([3]; Trans plants): 34428.06 pixels
- Calc Fresh Weight ([3]; Trans plants): 101.65 g
- Narrow Side Drk Grn ([3]; Trans plants): 27235.14 pix
- Plant Volume ([3]; Trans plants): 9.50 M pixels
- Top Drk Grn ([3]; Trans plants): 57655.69 pixels

Structure (SMILES): COC(=O)N(OC)c1ccccc1COc1ccn(-c2ccc(Cl)cc2)n1 [F500, pyraclostrobin]
- # Fully Expanded Leaves ([2]; Avg): 3.0
- Leaf Angle 0 ([2]; Avg): 46.6 degrees
- Leaf Angle 1 ([2]; Avg): 37.4 degrees
- Plant Volume ([2]; Avg): 6.43E+06 pixels
- Stem Length ([2]; Avg): 104.4 cm
- stalk area from the transverse view, Pixel Count ([2]; Avg): 4724 pixels
- Internode 1 length ([2]; Avg of null and transgenic): 34.3 cm
- Internode 2 length ([2]; Avg of null and transgenic): 38.4 cm
- Internode 3 length ([2]; Avg of null and transgenic): 40.7 cm
- # Fully Expanded Leaves ([2]; Null plants): 2.9
- Leaf Angle 0 ([2]; Null plants): 39.2 degrees
- Leaf Angle 1 ([2]; Null plants): 36.5 degrees
- Plant Volume ([2]; Null plants): 6.18E+06 pixels
- Stem Length ([2]; Null plants): 97.2 cm
- stalk area from the transverse view, Pixel Count ([2]; Null plants): 4725 pixels
- Internode 1 length ([2]; Null plants): 32.5 cm
- Internode 2 length ([2]; Null plants): 36.0 cm
- Internode 3 length ([2]; Null plants): 38.8 cm
- Internode 1 length ([2]; Trans (transgenic) plants): 35.9 cm
- Internode 2 length ([2]; Trans (transgenic) plants): 40.4 cm
- Internode 3 length ([2]; Trans (transgenic) plants): 42.1 cm
- # Fully Expanded Leaves ([2]; Trans plants): 3.1
- Leaf Angle 0 ([2]; Trans plants): 52.5 degrees
- Leaf Angle 1 ([2]; Trans plants): 38.2 degrees
- Plant Volume ([2]; Trans plants): 6.63E+06 pixels
- Stem Length ([2]; Trans plants): 110.2 cm
- stalk area from the transverse view, Pixel Count ([2]; Trans plants): 4723 pixels
- Fresh Weight ([2]; Avg): 155.3 grams
- Fresh Weight ([2]; Null plants): 155.7 grams
- Fresh Weight ([2]; Trans plants): 155.0 grams
- Dark Green Count ([2]; parallel view, Avg): 14884.7 pixels
- Medium Green Count ([2]; parallel view, Avg): 6153.1 pixels
- Plant Area ([2]; parallel view, Avg): 23089.7 pixels
- Yellow Count ([2]; parallel view, Avg): 2051.9 pixels
- Dark Green Count ([2]; parallel view, Null plants): 14727.7 pixels
- Medium Green Count ([2]; parallel view, Null plants): 5691.8 pixels
- Plant Area ([2]; parallel view, Null plants): 22426.2 pixels
- Yellow Count ([2]; parallel view, Null plants): 2006.6 pixels
- Dark Green Count ([2]; parallel view, Trans plants): 15010.4 pixels
- Medium Green Count ([2]; parallel view, Trans plants): 6522.1 pixels
- Plant Area ([2]; parallel view, Trans plants): 23620.6 pixels
- Yellow Count ([2]; parallel view, Trans plants): 2088.1 pixels
- Medium Green Count ([2]; top view, Avg): 18542 pixels
- Medium Green Count ([2]; top view, Null plants): 17893 pixels
- Medium Green Count ([2]; top view, Trans plants): 19062 pixels
- Medium Green Count ([2]; transverse view, Avg): 9584.5 pixels
- Yellow Count ([2]; transverse view, Avg): 4227.2 pixels
- Medium Green Count ([2]; transverse view, Null plants): 9303.7 pixels
- Yellow Count ([2]; transverse view, Null plants): 4081.7 pixels
- Medium Green Count ([2]; transverse view, Trans plants): 9809.2 pixels
- Yellow Count ([2]; transverse view, Trans plants): 4343.5 pixels
- Plant volume, significance of treatment [3]: significant at 99%
- dark green pixel count, significance of treatment [3]: significant at 99%
- Broad Side Drk Grn ([3]; Avg): 26984.96 pixels
- Broad Side Plnt Area ([3]; Avg): 38169.74 pixels
- Calc Fresh Weight ([3]; Avg): 105.47 g
- Narrow Side Drk Grn ([3]; Avg): 27393.61 pix
- Plant Volume ([3]; Avg): 10.47 M pixels
- Top Drk Grn ([3]; Avg): 59991.92 pixels
- Broad Side Drk Grn ([3]; Null plants): 26088.87 pixels
- Broad Side Plnt Area ([3]; Null plants): 36740.30 pixels
- Calc Fresh Weight ([3]; Null plants): 100.53 g
- Narrow Side Drk Grn ([3]; Null plants): 26394.93 pix
- Plant Volume ([3]; Null plants): 9.90 M pixels
- Top Drk Grn ([3]; Null plants): 57676.78 pixels
- Broad Side Drk Grn ([3]; Trans plants): 27881.04 pixels
- Broad Side Plnt Area ([3]; Trans plants): 39599.17 pixels
- Calc Fresh Weight ([3]; Trans plants): 110.41 g
- Narrow Side Drk Grn ([3]; Trans plants): 28392.28 pix
- Plant Volume ([3]; Trans plants): 11.04 M pixels
- Top Drk Grn ([3]; Trans plants): 62307.07 pixels
- photosynthetic health (in words) ([3]; in general): enhanced
- plant size (in words) ([3]; in general): enhanced

Reference: patent US20100093715A1, “Plant productivity enhancement by combining chemical agents with transgenic modifications” (BASF SE, priority 2007, published 2010)
